Test results as given in patent US11478533B2, “Semaglutide for use in medicine” (Novo Nordisk A/S, priority 2020, dated 2022).

Test system: subjects with NASH
Experiment: Clinical Trial A: liver biopsy histology (NASH-CRN, Kleiner fibrosis classification) at trial week 72
Type: in vivo, human
Conditions: for Worsening of liver fibrosis stage determined via liver biopsy at end of trial compared to baseline, Proportion of subjects: all randomised subjects
Description: NASH diagnosis may further include histological evidence of NASH with an NAFLD activity score (NAS) of more than 4. In some embodiments the term “NAFLD activity score” as used herein refers to the unweighted sum of the individual scores of steatosis (score 0-3), lobular inflammation (score 0-3), and hepatocyte ballooning (score 0-2) determined by liver biopsy histology according to NASH-CRN; thus, NAS is in the range of 0 to 8. In some embodiments NASH-CRN is as published in Kleiner et al. Hepatology. 2005; 41(6):1313-21 (e.g. Table 1) and Brunt et al. World J Gastroenterol. 2010; 16(42):5286-96. In some embodiments the term “steatosis” as used herein refers to liver biopsy histology showing low- to medium-power evaluation of parenchymal involvement by steatosis and is one of the stages with a score selected from the group consisting of “0” (<5%), “1” (5%-33%), “2” (>33%-66%), and “3” (>66%) according to NASH-CRN. In some embodiments the term “lobular inflammation” as used herein refers to the overall assessment of all inflammatory foci in liver biopsy histology and is one of the stages with a score selected from the group consisting of “0” (no foci), “1” (<2 foci per 200 times magnification field), “2” (2-4 foci per 200 times magnification field) and “3” (>4 foci per 200 times magnification field) according to NASH-CRN. In some embodiments the term “hepatocyte ballooning” as used herein refers to liver biopsy histology showing one of the stages with a score selected from the group consisting of “0” (none), “1” (few balloon cells) and “2” (many cells/prominent ballooning) according to NASH-CRN.
In some embodiments the method of the invention provides resolution of NASH. In some embodiments the term “resolution of NASH” as used herein refers to the subject no longer fulfilling the criteria for a NASH diagnosis. In some embodiments the term “resolution of NASH” refers to a liver biopsy histology showing (i) no more than mild residual inflammatory cells (i.e. inflammation score 0 or 1 according to NASH-CRN), (ii) no hepatocyte ballooning (i.e. hepatocyte ballooning score of 0 according to NASH-CRN), and (iii) any value for steatosis (i.e. steatosis score of 0-3 according to NASH-CRN). In some embodiments the method of the invention provides an improvement of lobular inflammation and/or hepatocyte ballooning. In some embodiments the term “improvement of lobular inflammation” as used herein refers to reduction by at least one stage of lobular inflammation (score 0-3) as defined herein; for example, reduction from a score 3 to a score 1. In some embodiments the term “improvement of hepatocyte ballooning” as used herein refers to reduction by at least one stage of hepatocyte ballooning (score 0-2) as defined herein; for example, reduction from a score 2 to a score 0.
In some embodiments the term “fibrosis” as used herein refers to the fibrosis stage in NASH described by the Kleiner fibrosis classification. In some embodiments the terms “Kleiner fibrosis classification” or “fibrosis stage” are used interchangeably herein and refer to the classification as defined in Kleiner et al. Hepatology, 2005; 41(6):1313-21 which consists of the stages selected from the group consisting of “0” (absence of fibrosis), “1” (portal/perisinusoidal fibrosis), “2” (perisinusoidal and portal/periportal fibrosis), “3” (septal or bridging fibrosis), and “4” (cirrhosis). In some embodiments the method of the invention provides no worsening of liver fibrosis. In some embodiments the terms “no worsening of liver fibrosis” or “no worsening of liver fibrosis stage” as used interchangeably herein refers to no increase of at least one stage of the Kleiner fibrosis classification.
A 72-week, randomised, double-blind, placebo-controlled, six-armed, parallel group, multicentre, multi-national phase 2 trial comparing once daily (OD) administration of semaglutide in three different doses (0.1 mg, 0.2 mg and 0.4 mg) with placebo in subjects with NASH was carried out. […]

[1] = 0.1 mg OD s.c., week 72, Fibrosis stage 1-3 at baseline (all randomised subjects)
[2] = 0.1 mg OD s.c., week 72, Fibrosis stage 1 at baseline
[3] = 0.1 mg OD s.c., week 72, Fibrosis stage 2 at baseline
[4] = 0.1 mg OD s.c., week 72, Fibrosis stage 2 or 3 at baseline
[5] = 0.1 mg OD s.c., week 72, Fibrosis stage 3 at baseline
[6] = 0.2 mg OD s.c., week 72, Fibrosis stage 1-3 at baseline (all randomised subjects)
[7] = 0.2 mg OD s.c., week 72, Fibrosis stage 1 at baseline
[8] = 0.2 mg OD s.c., week 72, Fibrosis stage 2 at baseline
[9] = 0.2 mg OD s.c., week 72, Fibrosis stage 2 or 3 at baseline
[10] = 0.2 mg OD s.c., week 72, Fibrosis stage 3 at baseline
[11] = 0.4 mg OD s.c., week 72, Fibrosis stage 1-3 at baseline (all randomised subjects)
[12] = 0.4 mg OD s.c., week 72, Fibrosis stage 1 at baseline
[13] = 0.4 mg OD s.c., week 72, Fibrosis stage 2 at baseline
[14] = 0.4 mg OD s.c., week 72, Fibrosis stage 2 or 3 at baseline
[15] = 0.4 mg OD s.c., week 72, Fibrosis stage 3 at baseline
[16] = all tested semaglutide dosages, liver fibrosis stage 1-3 at baseline

## N-epsilon26-[2-(2-{2-[2-(2-{2-[(S)-4-Carboxy-4-(17-carboxyheptadecanoyl-amino)butyrylamino]ethoxy}ethoxy)acetylamino]ethoxy}ethoxy)acetyl] [Aib8, Arg34]GLP-1-(7-37) [Semaglutide]
[1]
  Improvement of hepatocyte ballooning at end of trial compared to baseline, proportion of subjects: 61.3%
  Improvement of lobular inflammation at end of trial compared to baseline, proportion of subjects: 41.3%
  Improvement of steatosis at end of trial compared to baseline, proportion of subjects: 52.5%
  Resolution of NASH and no worsening in liver fibrosis at end of trial, proportion of subjects: 43.8 (0.0023) %
  Resolution of NASH at end of trial, proportion of subjects: 47.5%
[2]
  Improvement of hepatocyte ballooning at end of trial compared to baseline, proportion of subjects: 60.9%
  Improvement of lobular inflammation at end of trial compared to baseline, proportion of subjects: 34.8%
  Improvement of steatosis at end of trial compared to baseline, proportion of subjects: 56.5%
  Resolution of NASH and no worsening in liver fibrosis at end of trial, proportion of subjects: 52.2%
  Resolution of NASH at end of trial, proportion of subjects: 60.9%
[3]
  Improvement of hepatocyte ballooning at end of trial compared to baseline, proportion of subjects: 66.7%
  Improvement of lobular inflammation at end of trial compared to baseline, proportion of subjects: 33.3%
  Improvement of steatosis at end of trial compared to baseline, proportion of subjects: 61.1%
  Resolution of NASH and no worsening in liver fibrosis at end of trial, proportion of subjects: 55.6%
  Resolution of NASH at end of trial, proportion of subjects: 55.6%
[4]
  Improvement of hepatocyte ballooning at end of trial compared to baseline, proportion of subjects: 61.4%
  Improvement of lobular inflammation at end of trial compared to baseline, proportion of subjects: 43.9%
  Improvement of steatosis at end of trial compared to baseline, proportion of subjects: 50.9%
  Resolution of NASH and no worsening in liver fibrosis at end of trial, proportion of subjects: 40.4 (0.0100) %
  Resolution of NASH at end of trial, proportion of subjects: 42.1%
[5]
  Improvement of hepatocyte ballooning at end of trial compared to baseline, proportion of subjects: 59.0%
  Improvement of lobular inflammation at end of trial compared to baseline, proportion of subjects: 48.7%
  Improvement of steatosis at end of trial compared to baseline, proportion of subjects: 46.2%
  Resolution of NASH and no worsening in liver fibrosis at end of trial, proportion of subjects: 33.3%
  Resolution of NASH at end of trial, proportion of subjects: 35.9%
0.1 mg OD s.c., week 72
  Worsening of liver fibrosis stage determined via liver biopsy at end of trial compared to baseline, Proportion of subjects: 10.0%
[6]
  Improvement of hepatocyte ballooning at end of trial compared to baseline, proportion of subjects: 70.5%
  Improvement of lobular inflammation at end of trial compared to baseline, proportion of subjects: 47.4%
  Improvement of steatosis at end of trial compared to baseline, proportion of subjects: 60.3%
  Resolution of NASH and no worsening in liver fibrosis at end of trial, proportion of subjects: 38.5 (0.0138) %
  Resolution of NASH at end of trial, proportion of subjects: 46.2%
[7]
  Improvement of hepatocyte ballooning at end of trial compared to baseline, proportion of subjects: 84.2%
  Improvement of lobular inflammation at end of trial compared to baseline, proportion of subjects: 42.1%
  Improvement of steatosis at end of trial compared to baseline, proportion of subjects: 63.2%
  Resolution of NASH and no worsening in liver fibrosis at end of trial, proportion of subjects: 47.4%
  Resolution of NASH at end of trial, proportion of subjects: 68.4%
[8]
  Improvement of hepatocyte ballooning at end of trial compared to baseline, proportion of subjects: 72.2%
  Improvement of lobular inflammation at end of trial compared to baseline, proportion of subjects: 38.9%
  Improvement of steatosis at end of trial compared to baseline, proportion of subjects: 66.7%
  Resolution of NASH and no worsening in liver fibrosis at end of trial, proportion of subjects: 55.6%
  Resolution of NASH at end of trial, proportion of subjects: 61.1%
[9]
  Improvement of hepatocyte ballooning at end of trial compared to baseline, proportion of subjects: 66.1%
  Improvement of lobular inflammation at end of trial compared to baseline, proportion of subjects: 49.2%
  Improvement of steatosis at end of trial compared to baseline, proportion of subjects: 59.3%
  Resolution of NASH and no worsening in liver fibrosis at end of trial, proportion of subjects: 35.6 (0.0359) %
  Resolution of NASH at end of trial, proportion of subjects: 39.0%
[10]
  Improvement of hepatocyte ballooning at end of trial compared to baseline, proportion of subjects: 63.4%
  Improvement of lobular inflammation at end of trial compared to baseline, proportion of subjects: 53.7%
  Improvement of steatosis at end of trial compared to baseline, proportion of subjects: 56.1%
  Resolution of NASH and no worsening in liver fibrosis at end of trial, proportion of subjects: 26.8%
  Resolution of NASH at end of trial, proportion of subjects: 29.3%
0.2 mg OD s.c., week 72
  Worsening of liver fibrosis stage determined via liver biopsy at end of trial compared to baseline, Proportion of subjects: 7.7%
[11]
  Improvement of hepatocyte ballooning at end of trial compared to baseline, proportion of subjects: 74.4%
  Improvement of lobular inflammation at end of trial compared to baseline, proportion of subjects: 37.8%
  Improvement of steatosis at end of trial compared to baseline, proportion of subjects: 63.4%
  Resolution of NASH and no worsening in liver fibrosis at end of trial, proportion of subjects: 56.1 (<0.0001) %
  Resolution of NASH at end of trial, proportion of subjects: 61.0%
[12]
  Improvement of hepatocyte ballooning at end of trial compared to baseline, proportion of subjects: 57.7%
  Improvement of lobular inflammation at end of trial compared to baseline, proportion of subjects: 15.4%
  Improvement of steatosis at end of trial compared to baseline, proportion of subjects: 53.8%
  Resolution of NASH and no worsening in liver fibrosis at end of trial, proportion of subjects: 50.0%
  Resolution of NASH at end of trial, proportion of subjects: 53.8%
[13]
  Improvement of hepatocyte ballooning at end of trial compared to baseline, proportion of subjects: 78.6%
  Improvement of lobular inflammation at end of trial compared to baseline, proportion of subjects: 50.0%
  Improvement of steatosis at end of trial compared to baseline, proportion of subjects: 71.4%
  Resolution of NASH and no worsening in liver fibrosis at end of trial, proportion of subjects: 64.3%
  Resolution of NASH at end of trial, proportion of subjects: 78.6%
[14]
  Improvement of hepatocyte ballooning at end of trial compared to baseline, proportion of subjects: 82.1%
  Improvement of lobular inflammation at end of trial compared to baseline, proportion of subjects: 48.2%
  Improvement of steatosis at end of trial compared to baseline, proportion of subjects: 67.9%
  Resolution of NASH and no worsening in liver fibrosis at end of trial, proportion of subjects: 58.9 (<0.0001) %
  Resolution of NASH at end of trial, proportion of subjects: 64.3%
[15]
  Improvement of hepatocyte ballooning at end of trial compared to baseline, proportion of subjects: 83.3%
  Improvement of lobular inflammation at end of trial compared to baseline, proportion of subjects: 47.6%
  Improvement of steatosis at end of trial compared to baseline, proportion of subjects: 66.7%
  Resolution of NASH and no worsening in liver fibrosis at end of trial, proportion of subjects: 75.1%
  Resolution of NASH at end of trial, proportion of subjects: 59.5%
0.4 mg OD s.c., week 72
  Worsening of liver fibrosis stage determined via liver biopsy at end of trial compared to baseline, Proportion of subjects: 4.9%
All semaglutide dosages tested, week 72
  Worsening of liver fibrosis stage compared to placebo (in words): lower proportion of subjects
[16]
  Resolution of NASH and no worsening in liver fibrosis compared to placebo (in words): achieved by significantly more subjects compared to placebo
  Resolution of NASH compared to placebo (in words): achieved by significantly more subjects compared to placebo
